“Also recorded” adds a separate entry of the source. Read-outs that look alike come from different tables or passages of the source.
Legend:
in vitro [1] = details: African green monkey, CC50 (half-maximal cytotoxic concentration)
Vero E6 cells = details: African green monkey
[2] = tested on: autophagic flux in Vero E6 cells; assay: Western blot of autophagy markers LC3-II and p62 with or without Baf A1; type: cell-based, African green monkey; details: uninfected Vero E6 cells, 24 h, with or without Baf A1 for the last 4 h, normalized to GAPDH
[3] = tested on: SARS-CoV-2 BetaCoV/France/IDF0372/2020 strain; parameters: species or system K18-hACE2 mouse; details: mouse, in vivo
in vitro [4] = details: human
[5] = tested on: SARS-CoV-2 IHUMI-6 strain; type: cell-based; details: Vero E6 cells, according to the strain used
cathepsin B (CTSB) = tested on: cathepsin B (CTSB); parameters: method as in ref 16, 33 = [16]; details: cited from earlier work
[6] = tested on: SARS-CoV-2 IHUMI-6 strain; assay: microbe, parasite or virus in culture; type: cell-based
cathepsin L (CTSL) = tested on: cathepsin L (CTSL); parameters: method as in ref 16, 33 = [16]; details: cited from earlier work
[7] = tested on: SARS-CoV-2-infected Vero E6 cells; type: cell-based; details: 4 µM, 2 h, then IHUMI-6 infection 24 h
[8] = tested on: SARS-CoV-2 hCoV-19_IPL_France strain; type: cell-based; details: wild-type Vero E6 cells, MOI 0.025, 16 h, increasing doses
[9] = tested on: SARS-CoV-2 hCoV-19_IPL_France strain; type: cell-based; details: Vero E6-TMPRSS2 cells, MOI 0.025, 16 h, increasing doses
[10] = tested on: SARS-CoV-2-infected Vero E6 cells; assay: Immunofluorescence assays; type: cell-based, African green monkey; details: IHUMI-6, MOI 0.1, 48 h post-infection, versus infected untreated, p = 0.03
SARS-CoV-2 = tested on: SARS-CoV-2; parameters: method as in ref 28 = [28]; details: Vero E6 system; read-out: EC50, SARS-CoV-2 cytopathic effect; cited from earlier work

## CCN(CC)CCCC(C)Nc1ccnc2cc(Cl)ccc12 (centres unmarked) [Chloroquine, chloroquine]
In vitro [1]
  CC50: 73.2 µM
Vero E6 cells
  CC50: 73.2 µM

## CC(C)(C)NC1CCN(c2cc(NCc3ccc(Cl)cc3)nc3ccccc23)CC1 [GNS561, Ezurpimtrostat]
[2]
  Normalized LC3-II protein expression: increased in a dose-dependent manner
  p62 protein level: The same observation
[3]
  lung SARS-CoV-2 viral load: decline in SARS-CoV-2 virions in the lungs; also recorded: downward trend; also recorded: moderate
  lung tissue ultrastructure (autophagic vacuoles, multilamellar bodies): autophagic vacuole accumulation with increased electron density
In vitro [4]
  CC50 at 48 h: 4.6 µM
[5]
  inhibitory concentration relative to remdesivir: 50.5–200 times
Cathepsin B (CTSB)
  enzymatic activity of cathepsin B: significantly impair
[6]
  selectivity index: moderate
[6]; Severe acute respiratory syndrome coronavirus 2, in Homo sapiens, human lung Calu-3 cells, IHUMI-6 strain, 48 h, read-out: EC50 antiviral activity
  EC50: 1100 nM
Cathepsin L (CTSL)
  enzymatic activity of cathepsin L: significantly impair
[7]
  volume (area) of autophagic vacuoles in the cytoplasm: increase in the volume of autophagic vacuoles
[8]
  SARS-CoV-2 N protein level compared to untreated: did not alter the N protein level
[9]
  SARS-CoV-2 N protein level compared to untreated: did not alter the N protein level
[10]
  LC3B signal (LC3B clusters): enhanced

## Cc1ccc(NCCN(C)CCNc2ccnc3cc(Cl)ccc23)c2c(=O)c3ccccc3sc12 [ROC-325]
SARS-CoV-2
  EC50: 3.28 µM
